These results are taken from US20220378923A1, “BET DEGRADER” (KYOWA KIRIN CO., LTD., priority 2019, published 2022).

Structures are written as SMILES.

The assay has as its system SU-DHL-4 cells. Briefly: Inhibitory effect on cell viability in SU-DHL-4 cell line (Test Example 1). Conditions: SU-DHL-4 cells, 72 hours, Cell Counting Kit-8; concentration showing 90% inhibition of cell viability; read-out: SU-DHL-4 Cell Viability Inhibition Rate IC90. The assay is classed as cell-based, human. Here is the method:
SU-DHL-4 cells (Code No. ACC 495, Deutsche Sammlung von Mikroorganismen and Zellkulturen GmbH; DSMZ) were cultured at 37° C. using a carbon dioxide incubator (95% air, 5% CO2) in RPMI1640 medium (Code No. 11875-093, Thermo Fisher Scientific) in which inactivated fetal bovine serum (FBS: Code No. 10099-148, Thermo Fisher Scientific) in an amount to give a final concentration of 10 vol % and penicillin/streptomycin solution (PS: […] The cells were passaged twice a week at a volume of 20-40 mL so as to maintain a cell concentration of 1×10^6 cells/mL or less. […] After seeding, the cells were precultured at 37° C. in a carbon dioxide gas incubator for 18 to 25 hours. […] At this time, the final concentration of DMSO was adjusted to be 0.1 vol %. After adding the test compound, the cells were cultured at 37° C. in a carbon dioxide gas incubator for 72 hours. Next, 0.020 mL of Cell Counting Kit-8 (Code No. CK04, DOJINDO) solution diluted 2-fold or 4-fold with phosphate buffered saline (PBS) was added to each well. Color reaction was carried out in a carbon dioxide gas incubator at 37° C. for 2 to 3 hours, and the absorbance at a wavelength of 450 nm was measured using SpectraMax 340PC (Molecular Devices). […] Absorbance of a well containing test compound • B: Absorbance of a well without addition of cells • C: Absorbance of a well without addition of test compound
As for `Cc1sc2c(c1C)C(c1ccc(NC(=O)CNC(=O)c3ccc(C4=N[C@@H](CC(=O)OC(C)(C)C)c5nnc(C)n5-c5sc(C)c(C)c54)cc3)cc1)=N[C@@H](CC(=O)OC(C)(C)C)c1nnc(C)n1-2` [Compound 2b, tert-Butyl 2-[(S)-4-{4-[2-(4-{(S)-6-[2-(tert-butoxy)-2-oxoethyl]-2,3,9-trimethyl-6H-thieno[3,2-f][1,2,4]triazolo[4,3-a][1,4]diazepin-4-yl}benzamide)acetamide]phenyl}-2,3,9-trimethyl-6H-thieno[3,2-f][1,2,4]triazolo[4,3-a][1,4]diazepin-6-yl]acetate], the IC90 was 1.52 nM. The result for `CCC(=O)N1c2ccccc2[C@H](Nc2ccc(C(=O)NCC(=O)CNC(=O)c3ccc(C4=NCc5nnc(C)n5-c5sc(C)c(C)c54)cc3)cc2)C[C@@H]1C` [Compound 14l, 4-(((2S,4R)-2-Methyl-1-propionyl-1,2,3,4-tetrahydroquinolin-4-yl)amino)-N-(2-oxo-3-(4-(2,3,9-trimethyl-6H-thieno[3,2-f][1,2,4]triazolo[4,3-a][1,4]diazepin-4-yl)benzamide)propyl)benzamide] reads 0.6 nM. The result for `CCC(=O)N1c2ccccc2[C@H](Nc2ccc(C(=O)NCC#CC(=O)NC3CC(N[C@@H]4C[C@H](C)N(C(=O)CC)c5ccccc54)C3)cc2)C[C@@H]1C` (relative stereo) [Compound 10f, 4-(((2S,4R)-2-Methyl-1-propionyl-1,2,3,4-tetrahydroquinolin-4-yl)amino)-N-(4-(((1R,3R)-3-(((2S*,4R*)-2-methyl-1-propionyl-1,2,3,4-tetrahydroquinolin-4-yl)amino)cyclobutyl)amino)-4-oxobut-2-yn-1-yl)benzamide] reads 0.92 nM; that for `CCC(=O)N1c2ccccc2[C@H](Nc2ccc(NC(=O)C3CCN(C(=O)C4CCC(N[C@@H]5C[C@H](C)N(C(=O)CC)c6ccccc65)CC4)CC3)cc2)C[C@@H]1C` (relative stereo) [Compound 8q, 1-((1R,4r)-4-(((2S*,4R*)-2-Methyl-1-propionyl-1,2,3,4-tetrahydroquinolin-4-yl)amino)cyclohexane-1-carbonyl)-N-(4-(((2S,4R)-2-methyl-1-propionyl-1,2,3,4-tetrahydroquinolin-4-yl)amino)phenyl)piperidine-4-carboxamide], 19 nM.

Consider `CCC(=O)N1c2ccccc2[C@H](Nc2ccc(NC(=O)CCNS(=O)(=O)c3ccc(N[C@@H]4C[C@H](C)N(C(=O)CC)c5ccccc54)cc3)cc2)C[C@@H]1C` [Compound 6e, N-(4-(((2S,4R)-2-Methyl-1-propionyl-1,2,3,4-tetrahydroquinolin-4-yl)amino)phenyl)-3-((4-(((2S,4R)-2-methyl-1-propionyl-1,2,3,4-tetrahydroquinolin-4-yl)amino)phenyl)sulfonamide)propanamide], for which the IC90 stood at 4.31 nM. Then `CCC(=O)N1c2ccccc2[C@H](Nc2ccc(C(=O)c3cnc4n3CCN(C(=O)c3ccc(N[C@@H]5C[C@H](C)N(C(=O)CC)c6ccccc65)cc3)C4)cc2)C[C@@H]1C` [Compound 6f, 1,1′-((2S,2'S,4R,4R)-(((5,6,7,8-Tetrahydroimidazo[1,2-a]pyrazine-3,7-dicarbonyl)bis(4,1-phenylene))bis(azanediyl))bis(2-methyl-3,4-dihydroquinoline-4,1(2H)-diyl))bis(propan-1-one)], with 0.11 nM. Turning to `CCC(=O)N1c2ccccc2[C@H](Nc2ccc(-c3cnn(CC(=O)NC4CCC(N[C@@H]5C[C@H](C)N(C(=O)CC)c6ccccc65)CC4)c3)cc2)C[C@@H]1C` (relative stereo) [Compound 9b, N-((1R,4R)-4-(((2S*,4R*)-2-Methyl-1-propionyl-1,2,3,4-tetrahydroquinolin-4-yl)amino)cyclohexyl)-2-(4-(4-(((2S,4R)-2-methyl-1-propionyl-1,2,3,4-tetrahydroquinolin-4-yl)amino)phenyl)-1H-pyrazol-1-yl)acetamide], the 90% effect concentration (IC90) amounted to 3.18 nM.

As for `CCC(=O)N1c2ccccc2[C@H](Nc2ccc(SCCNC(=O)C3CCC(N[C@@H]4C[C@H](C)N(C(=O)CC)c5ccccc54)CC3)cc2)C[C@@H]1C` (relative stereo) [Compound 8i, (1R,4R)-4-(((2S*,4R*)-2-Methyl-1-propionyl-1,2,3,4-tetrahydroquinolin-4-yl)amino)-N-(2-((4-(((2S,4R)-2-methyl-1-propionyl-1,2,3,4-tetrahydroquinolin-4-yl)amino)phenyl)thio)ethyl)cyclohexane-1-carboxamide], the IC90 is 2.69 nM.

As to `CCC(=O)N1c2ccccc2[C@H](NCCCCC(=O)NCc2nnc(-c3ccc(N[C@@H]4C[C@H](C)N(C(=O)CC)c5ccccc54)cc3)o2)C[C@@H]1C` (relative stereo) [Compound 12j, 5-(((2S*,4R*)-2-Methyl-1-propionyl-1,2,3,4-tetrahydroquinolin-4-yl)amino)-N-((5-(4-(((2S,4R)-2-methyl-1-propionyl-1,2,3,4-tetrahydroquinolin-4-yl)amino)phenyl)-1,3,4-oxadiazol-2-yl)methyl)pentane amide], the 90% effect concentration (IC90) stood at 17.4 nM. Then `CCC(=O)N1c2ccccc2[C@H](Nc2ccc(NC(=O)CCCC(=O)NC3CCC(Oc4ccc(NS(=O)(=O)CC)cc4-c4cn(C)c(=O)cc4OC)CC3)cc2)C[C@@H]1C` (stereo partly drawn) [Compound 16l, N^1-((1r,4r)-4-(4-(Ethylsulfonamide)-2-(4-methoxy-1-methyl-6-oxo-1,6-dihydropyridin-3-yl)phenoxy)cyclohexyl)-N5-(4-(((2S,4R)-2-methyl-1-propionyl-1,2,3,4-tetrahydroquinolin-4-yl)amino)phenyl)glutaramide], with 89.8 nM; and `CCC(=O)N1c2ccccc2[C@H](Nc2ccc(NC(=O)CCCC(=O)NC3CCCN(Cc4ccc(NS(=O)(=O)CC)cc4-c4cn(C)c(=O)cc4OC)C3)cc2)C[C@@H]1C` (stereo partly drawn) [Compound 16f, N^1-(1-(4-(Ethylsulfonamide)-2-(4-methoxy-1-methyl-6-oxo-1,6-dihydropyridin-3-yl)benzyl)piperidin-3-yl)-N5-(4-(((2S,4R)-2-methyl-1-propionyl-1,2,3,4-tetrahydroquinolin-4-yl)amino)phenyl)glutaramide], with 24.6 nM; and `CCC(=O)N1c2ccccc2[C@H](Nc2ccc(-n3cc(CNC(=O)C4CCC(N[C@@H]5C[C@H](C)N(C(=O)CC)c6ccccc65)CC4)nn3)cc2)C[C@@H]1C` (relative stereo) [Compound 8l, (1R,4R)-4-(((2S*,4R*)-2-Methyl-1-propionyl-1,2,3,4-tetrahydroquinolin-4-yl)amino)-N-((1-(4-(((2S,4R)-2-methyl-1-propionyl-1,2,3,4-tetrahydroquinolin-4-yl)amino)phenyl)-1H-1,2,3-triazol-4-yl)methyl)cyclohexane-1-carboxamide], with 0.04 nM. As for `CCC(=O)N1c2ccccc2[C@H](Nc2ccc(C(=O)c3cnc4n3CCN(C(=O)C3CCC(N[C@@H]5C[C@H](C)N(C(=O)CC)c6ccccc65)CC3)C4)cc2)C[C@@H]1C` (relative stereo) [Compound 7i, 1-((2S*,4R*)-2-Methyl-4-(((1r,4R)-4-(3-(4-(((2S,4R)-2-methyl-1-propionyl-1,2,3,4-tetrahydroquinolin-4-yl)amino)benzoyl)-5,6,7,8-tetrahydroimidazo[1,2-a]pyrazine-7-carbonyl)cyclohexyl)amino)-3,4-dihydroquinolin-1(2H)-yl)propan-1-one], the 90% effect concentration (IC90) came out at 0.33 nM. The result for `CCC(=O)N1c2ccccc2[C@H](Nc2ccc(C(=O)NCCCNC(=O)c3ccc(C(O)c4cc(O)cc(-c5c(C)noc5C)c4)cc3)cc2)C[C@@H]1C` (relative stereo) [Compound 1d, 4-{[3-(3,5-Dimethylisoxazol-4-yl)-5-hydroxyphenyl](hydroxy)methyl}-N-[3-(4-{[(2S*,4R*)-2-methyl-1-propionyl-1,2,3,4-tetrahydroquinolin-4-yl]amino}benzamide)propyl]benzamide] reads 38 nM; that for `CCC(=O)N1c2ccccc2[C@H](Nc2ccc(NC(=O)C3CN(C(=O)[C@H]4CC[C@H](N[C@@H]5C[C@H](C)N(C(=O)CC)c6ccccc65)CC4)C3)cc2)C[C@@H]1C` [Compound 8c, 1-((1R,4R)-4-(((2S,4R)-2-Methyl-1-propionyl-1,2,3,4-tetrahydroquinolin-4-yl)amino)cyclohexane-1-carbonyl)-N-(4-(((2S,4R)-2-methyl-1-propionyl-1,2,3,4-tetrahydroquinolin-4-yl)amino)phenyl)azetidine-3-carboxamide], 0.26 nM.

With `CCC(=O)N1c2ccccc2[C@H](Nc2ccc(C(=O)NC3CN(C(=O)c4ccc(C5=N[C@@H](CC(=O)OCCN(C)C)c6nnc(C)n6-c6sc(C)c(C)c65)cc4)C3)cc2)C[C@@H]1C` [Compound 13b, 2-(Dimethylamino)ethyl 2-((S)-2,3,9-trimethyl-4-(4-(3-(4-(((2S,4R)-2-methyl-1-propionyl-1,2,3,4-tetrahydroquinolin-4-yl)amino)benzamide)azetidine-1-carbonyl)phenyl)-6H-thieno[3,2-f][1,2,4]triazolo[4,3-a][1,4]diazepin-6-yl)acetate], the IC90 came out at 3.5 nM.
